From patent US5840927A, “Sesquiterpene compounds” (Toa Gosei Co., Ltd., priority 1995, dated 1998) come the findings set out here.

In brackets after ≈: the same amount, converted by molar mass.

In series [1] the test system is Saccharomyces cerevisiae JCM2216. The experiment in a line: MIC assay, Saccharomyces cerevisiae JCM2216. The settings on record: similar procedure as described above. The format is cell-based.
In series [2] the test system is Aspergillus niger TIMM0113. Briefly: MIC assay of anti-fungal activity in vitro, Aspergillus niger TIMM0113. In kind it is cell-based. The settings on record: 96 h, A. niger TIMM0113, Yeast Morphology Ager, serial double dilution, 30° C., 4 days. As to the method: (§1) In the following, examples of anti-fungal assays are described.
(§2) In the assay standard microbial strains supplied from Research Center for Eumyceta and Mycosis, Teikyo University, Japan, were used as the test fungi, and Yeast Morphology Ager (DIFCO) was used as the medium for the drug sensitivity assays.
(§3) Firstly, the given fungus was smeared on the potato-dextrose agar media (Nissui Seiyaku) slants, incubated at 30° C. for 1 day (for Candida albicans and Cryptococcus neoformans) or for 4 days (for Aspergillus nigar and Aspergillus fumigatus), and then the fungus grown on the slant was washed out with a sterilized physiological salt solution containing 0.1% Tween 80. The washed out fungus was passed through a filter with 15 μm bores, and, after the number of fungus colonies were counted on the blood cell counting plate, a suspension containing 10^5 CFU/ml of fungus was prepared to be used as the inoculation solution. After this solution (0.02 ml) was inoculated to Yeast Morphology Ager containing a drug at concentrations in a serial double dilution, it was cultured at 30° C. for either 1 day or 4 days.
(§4) MIC assay of cryptoporic acid H was carried out by the similar procedure as described above.

The subject of series [3] is Aspergillus fumigatus TIMM0063. Briefly: MIC assay of anti-fungal activity in vitro, Aspergillus fumigatus TIMM0063. In kind it is cell-based. The settings on record: 96 h, A. fumigatus TIMM0063, Yeast Morphology Ager, serial double dilution, 30° C., 4 days. On the procedure:
as §1, §2, §3, §4

Series [4] has as its system Candida albicans TIMM1623. The experiment in a line: MIC assay of anti-fungal activity in vitro, Candida albicans TIMM1623. The format is cell-based. The settings on record: 24 h, C. albicans TIMM1623, Yeast Morphology Ager, serial double dilution, 30° C., 1 day. As to the method:
as §1, §2, §3, §4

A further series has as its system C. neoformans TIMM0354. Briefly: MIC assay of anti-fungal activity in vitro, Cryptococcus neoformans TIMM0354. In kind it is cell-based. The settings on record: 24 h, Yeast Morphology Ager, serial double dilution, 30° C., 1 day. On the procedure: as §1, §2, §3
The test system of series [5] is Candida albicans, Cryptococcus neoformans, Aspergillus nigar and Aspergillus fumigatus. The experiment in a line: anti-microbial activity in vitro against test fungi (overall statement). In kind it is cell-based. The settings on record: stated in words. On the procedure: as §1, §2, §3
Another series can be described thus: Solubility. In kind it is physicochemical.
[6] abbreviates: in methanol, acetone, and ethyl acetate.

Regarding `C=C1CC[C@H]2C(C)(C)CCC[C@]2(C)[C@H]1COC(C(=O)O)C(CC(=O)O)C(=O)O` (some centres unmarked) [Cryptoporic acid H, cryptoporic acid H], the MIC in series [1], in series [2], in series [3] and in series [4] was 200 µg/mL (≈ 504 µM) in each case.
As to `C=C1CC[C@H]2C(C)(C)CCC[C@]2(C)[C@H]1COC(C(=O)OC)C(CC(=O)O)C(=O)O[C@H]1CC(C)(C)[C@@H]2CC=C(C=O)[C@H](C=O)[C@@]2(C)C1` (some centres unmarked) [TG101], the MIC was found to be 50 µg/mL (≈ 77.8 µM) with C. neoformans TIMM0354, 50 µg/mL (≈ 77.8 µM) in series [2], 50 µg/mL (≈ 77.8 µM) in series [3] and 100 µg/mL (≈ 156 µM) in series [4]. Further, the anti-fungal activities result in series [5] is “confirming their anti-fungal activities”. The Solubility result in the series “Solubility” (in chloroform) is on record as “soluble”; in “Solubility” (setting [6]), “readily soluble”; in “Solubility” (in water) it was “slightly soluble”.
As to `C=C1CC[C@H]2C(C)(C)CCC[C@]2(C)[C@H]1COC(C(=O)O[C@H]1CC(C)(C)[C@@H]2CC=C(C=O)[C@H](C=O)[C@@]2(C)C1)C(CC(=O)O)C(=O)OC` (some centres unmarked) [TG102], the Solubility result in “Solubility” (in chloroform) is “soluble”; in “Solubility” (setting [6]), “readily soluble”; in “Solubility” (in water), “slightly soluble”.
As for `C=C1CC[C@H]2C(C)(C)CCC[C@]2(C)[C@H]1COC(C(=O)OC)C(CC(=O)O)C(=O)O[C@H]1CC(C)(C)[C@@H]2CC=C3COC(O)[C@@H]3[C@@]2(C)C1` (some centres unmarked) [TG103], the MIC with C. neoformans TIMM0354 stood at 50 µg/mL (≈ 77.5 µM); in series [2] it was 100 µg/mL (≈ 155 µM); in series [3] it was 25 µg/mL (≈ 38.8 µM); in series [4] it was 100 µg/mL (≈ 155 µM). The anti-fungal activities result in series [5] is reported as “confirming their anti-fungal activities”. In addition, the values for the Solubility entry in the series “Solubility” (in chloroform), in the series “Solubility” (setting [6]) and in “Solubility” (in water) were “soluble”, “readily soluble” and “slightly soluble”, respectively.
As to `C=C1CC[C@H]2C(C)(C)CCC[C@]2(C)[C@H]1COC(C(=O)O[C@H]1CC(C)(C)[C@@H]2CC=C3COC(O)[C@@H]3[C@@]2(C)C1)C(CC(=O)O)C(=O)OC` (some centres unmarked) [TG104], the Solubility entry was “soluble” in the series “Solubility” (in chloroform), “readily soluble” in “Solubility” (setting [6]) and “slightly soluble” in “Solubility” (in water).
